For 37 molecules, IC50 results are on record in US20120029190A1, “COMPOUNDS FOR TREATING DISORDERS MEDIATED BY METABOTROPIC GLUTAMATE RECEPTOR 5, AND METHODS OF USE THEREOF” (priority 2009, published 2012).

SMILES strings stand for the structures. Like-named read-outs stand apart in the source and are kept apart here.

This assay has as its target T1, human recombinant mGluR5 receptor (Homo sapiens, UniProt P41594).
T1 construct: expressed in transfected cells; expression induced with doxycycline
As to the kind of experiment: mGluR5 in vitro functional assay (aequorin cell line, inhibition of glutamate EC80 response). Type of assay: cell-based. As for the experimental part:
B. mGluR5 In Vitro Functional Assay
The functional assay utilized an aequorin cell line expressing human recombinant mGluR5 receptor, an inducible cell line that expresses the human receptor under the control of a promoter induced by doxycycline.
mGluR5 cells in mid-log phase, grown 18 hours prior to the test in antibiotic-free media supplemented with doxycycline (600 ng/mL), were detached by gentle flushing with PBS-EDTA ([…]). The cells were recovered by centrifugation and resuspended in assay buffer (HBSS, […], 3 ug/mL glutamate-pyruvate transaminase, […] MEM sodium pyruvate, 0.1% BSA protease-free). Cells were incubated at room temperature for at least 4 hours with Coelenterazine h (Molecular Probes). The cell suspension (60 uL) containing the test compound was mixed with a solution of reference agonist (30 uL) at its EC80, following an incubation of 3 min. after the first injection. The resulting emission of light was recorded using a Hamamatsu Functional Drug Screening System 6000 (FDSS 6000). To standardize the emission of recorded light (determination of the “100% signal’) across plates and across different experiments, some of the wells contained 100 uM digitonin or a saturating concentration (20 mM) of ATP. Plates also contained the reference agonist (glutamate) at a concentration equivalent to the EC80 obtained during assay validation. Percentages of inhibition were calculated on the basis of the activation induced by the reference agonist at a concentration equal to the EC80. Dose-response data were analyzed with XLFit (IDBS) software using nonlinear regression applied to a sigmoidal dose-response model.

Setting [1] is: Table 2, aequorin cell line expressing human mGluR5, reference agonist glutamate at EC80, obtained in duplicate, read-out: IC50.
The mark [2] stands for this setting: Table 1, aequorin cell line expressing human mGluR5, reference agonist glutamate at EC80, obtained in duplicate, read-out: IC50.

T1 sequence (P41594 21-1212): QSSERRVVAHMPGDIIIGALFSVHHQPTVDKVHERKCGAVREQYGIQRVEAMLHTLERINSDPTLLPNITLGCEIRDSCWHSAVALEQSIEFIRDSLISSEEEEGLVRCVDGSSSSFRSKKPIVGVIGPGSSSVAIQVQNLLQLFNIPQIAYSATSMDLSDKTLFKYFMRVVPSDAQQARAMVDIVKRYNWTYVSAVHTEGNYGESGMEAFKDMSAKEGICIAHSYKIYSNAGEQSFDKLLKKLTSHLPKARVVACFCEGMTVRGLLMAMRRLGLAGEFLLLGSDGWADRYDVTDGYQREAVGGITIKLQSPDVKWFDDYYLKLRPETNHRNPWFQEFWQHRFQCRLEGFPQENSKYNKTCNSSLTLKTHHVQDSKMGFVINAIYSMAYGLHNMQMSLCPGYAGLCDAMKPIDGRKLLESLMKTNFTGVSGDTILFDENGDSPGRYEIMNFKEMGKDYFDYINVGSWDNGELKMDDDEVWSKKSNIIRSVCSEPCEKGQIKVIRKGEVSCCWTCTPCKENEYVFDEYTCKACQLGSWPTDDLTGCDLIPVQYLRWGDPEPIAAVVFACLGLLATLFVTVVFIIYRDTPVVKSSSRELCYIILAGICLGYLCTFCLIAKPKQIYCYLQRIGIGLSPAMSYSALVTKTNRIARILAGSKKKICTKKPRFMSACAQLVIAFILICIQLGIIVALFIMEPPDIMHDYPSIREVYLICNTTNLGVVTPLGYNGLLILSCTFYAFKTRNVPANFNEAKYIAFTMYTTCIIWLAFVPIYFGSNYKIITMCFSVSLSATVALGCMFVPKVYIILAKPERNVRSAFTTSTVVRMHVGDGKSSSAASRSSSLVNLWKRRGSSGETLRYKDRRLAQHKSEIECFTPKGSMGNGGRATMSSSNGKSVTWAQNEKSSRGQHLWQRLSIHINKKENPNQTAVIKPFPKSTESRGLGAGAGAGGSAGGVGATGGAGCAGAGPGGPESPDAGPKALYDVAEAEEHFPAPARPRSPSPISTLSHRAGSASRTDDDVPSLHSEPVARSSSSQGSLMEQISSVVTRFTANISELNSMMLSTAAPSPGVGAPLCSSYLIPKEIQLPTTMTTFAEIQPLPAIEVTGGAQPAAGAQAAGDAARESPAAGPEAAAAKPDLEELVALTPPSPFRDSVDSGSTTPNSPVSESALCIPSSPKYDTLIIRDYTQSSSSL

Take `N#Cc1cc(F)cc(N2CCCc3oc(-c4cncnc4)nc3C2)c1` [Compound 206, 3-Fluoro-5-(2-(pyrimidin-5-yl)-7,8-dihydro-4H-oxazolo[4,5-c]azepin-5(6H)-yl)benzonitrile]: the IC50 under setting [1] was more than 10000 nM.
`N#Cc1cc(F)cc(N2CCc3nc(-c4ccccc4)oc3C2)c1` [Compound 21, 3-Fluoro-5-(2-phenyl-6,7-dihydrooxazolo[5,4-c]pyridin-5(4H)-yl)benzonitrile]: the IC50 under setting [2] is less than 1000 nM.
On the same count and under the same terms, the value for `Clc1cccc(-c2nc3c(o2)CCN(c2cnccn2)C3)c1` [Compound 41, 2-(3-Chlorophenyl)-5-(pyrazin-2-yl)-4,5,6,7-tetrahydrooxazolo[4,5-c]pyridine] was less than 1000 nM; that for `N#Cc1cccc(N2CCCc3oc(-c4ccccn4)nc3C2)c1` [Compound 99, 3-(2-(Pyridin-2-yl)-7,8-dihydro-4H-oxazolo[4,5-c]azepin-5(6H)-yl)benzonitrile] was less than 1000 nM.
Regarding `N#Cc1ccc(F)cc1N1CCc2oc(-c3ccccn3)nc2C1` [Compound 176, 4-Fluoro-2-(2-(pyridin-2-yl)-6,7-dihydrooxazolo[4,5-c]pyridin-5(4H)-yl)benzonitrile], the IC50 under setting [1] is less than 1000 nM.
In the case of `CC1CN(c2cc(F)cc(C#N)c2)Cc2oc(-c3ccccn3)nc21` (racemic) [Compound 81, (+/−)-3-Fluoro-5-(7-methyl-2-(pyridin-2-yl)-6,7-dihydrooxazolo[5,4-c]pyridin-5(4H)-yl)benzonitrile], under setting [2], the IC50 is less than 1000 nM.
The same measure, in the same setting: the value for `N#Cc1cccc(N2CCCc3nc(-c4ccc(F)cn4)oc3C2)c1` [Compound 97, 3-(2-(5-Fluoropyridin-2-yl)-7,8-dihydro-4H-oxazolo[5,4-c]azepin-5(6H)-yl)benzonitrile] was less than 1000 nM.
With `Fc1ccc(Cl)c(N2CCc3oc(-c4ccccn4)nc3C2)c1` [Compound 175, 5-(2-Chloro-5-fluorophenyl)-2-(pyridin-2-yl)-4,5,6,7-tetrahydrooxazolo[4,5-c]pyridine], under setting [1], the IC50 was less than 1000 nM.
The same measure, in the same setting: then `c1ccc(-c2nc3c(o2)CCN(c2ccccc2N2CCOCC2)C3)nc1` [Compound 193, 5-(2-Morpholinophenyl)-2-(pyridin-2-yl)-4,5,6,7-tetrahydrooxazolo[4,5-c]pyridine], with less than 1000 nM; and `Fc1cc(N2CCc3oc(-c4ccccn4)nc3C2)cc(F)c1F` [Compound 153, 2-(Pyridin-2-yl)-5-(3,4,5-trifluorophenyl)-4,5,6,7-tetrahydrooxazolo[4,5-c]pyridine], with less than 1000 nM.
As to `N#Cc1cccc(C(=O)N2CCc3nc(-c4ccccn4)oc3C2)c1` [Compound 12, 3-(2-(Pyridin-2-yl)-4,5,6,7-tetrahydrooxazolo[5,4-c]pyridine-5-carbonyl)benzonitrile], the IC50 under setting [2] is less than 10000 nM.
Consider `CC1CN(c2cc(F)cc(C#N)c2)Cc2nc(-c3ccccn3)oc21` (racemic) [Compound 82, (+/−)-3-Fluoro-5-(7-methyl-2-(pyridin-2-yl)-6,7-dihydrooxazolo[4,5-c]pyridin-5(4H)-yl)benzonitrile], for which the IC50 under setting [2] was less than 1000 nM.
Regarding `Fc1cc(Cl)cc(N2CCc3oc(-c4ccccn4)nc3C2)c1` [Compound 158, 5-(3-Chloro-5-fluorophenyl)-2-(pyridin-2-yl)-4,5,6,7-tetrahydrooxazolo[4,5-c]pyridine], the IC50 under setting [1] is less than 1000 nM.
On to `c1ccc(-c2nc3c(o2)CN(c2ccccn2)CC3)cc1` [Compound 20, 2-Phenyl-5-(pyridin-2-yl)-4,5,6,7-tetrahydrooxazolo-[5,4-c]pyridine], for which, under setting [2], the concentration for half-maximal inhibition (IC50) is more than 10000 nM.
Regarding `N#Cc1ccc(N2CCc3oc(-c4ccccn4)nc3C2)cc1F` [Compound 36, 2-Fluoro-4-(2-(pyridin-2-yl)-6,7-dihydrooxazolo[4,5-c]pyridin-5(4H)-yl)benzonitrile], the IC50 was more than 10000 nM.
For the molecule `Fc1cccc(N2CCCc3oc(-c4ccccn4)nc3C2)c1` [Compound 100, 5-(3-Fluorophenyl)-2-(pyridin-2-yl)-5,6,7,8-tetrahydro-4H-oxazolo[4,5-c]azepine], under setting [2], the IC50 was less than 1000 nM.
Still for that read-out and setting: the value for `Fc1ccc(-c2nc3c(o2)CCN(c2cnccn2)C3)cc1` [Compound 47, 2-(4-Fluorophenyl)-5-(pyrazin-2-yl)-4,5,6,7-tetrahydrooxazolo[4,5-c]pyridine] was less than 10000 nM; that for `CC1Cc2nc(-c3ccccn3)oc2CN1c1cc(F)cc(C#N)c1` (stereo not shown) [Compound 83, 3-Fluoro-5-(6-methyl-2-(pyridin-2-yl)-6,7-dihydrooxazolo[5,4-c]pyridin-5(4H)-yl)benzonitrile] was less than 1000 nM; that for `COc1cccc(N2CCCc3oc(-c4ccccn4)nc3C2)n1` [Compound 103, 5-(6-Methoxypyridin-2-yl)-2-(pyridin-2-yl)-5,6,7,8-tetrahydro-4H-oxazolo[4,5-c]azepine] was less than 1000 nM.
Consider `N#Cc1cccc(-c2nc3c(o2)CCN(c2ccccn2)C3)c1` [Compound 62, 3-(5-(Pyridin-2-yl)-4,5,6,7-tetrahydrooxazolo[4,5-c]pyridin-2-yl)benzonitrile], for which the half-maximal inhibitory concentration (IC50) under setting [2] is more than 10000 nM.
`Fc1ccc(N2CCCc3oc(-c4ncccn4)nc3C2)cc1Cl` [Compound 204, 5-(3-Chloro-4-fluorophenyl)-2-(pyrimidin-2-yl)-5,6,7,8-tetrahydro-4H-oxazolo[4,5-c]azepine]: the IC50 under setting [1] was more than 10000 nM.
Consider `N#Cc1cccc(-c2nc3c(o2)CN(c2ccccn2)C3)c1` [Compound 86, 3-(5-(Pyridin-2-yl)-5,6-dihydro-4H-pyrrolo[3,4-d]oxazol-2-yl)benzonitrile], for which the IC50 under setting [2] was more than 10000 nM.
Turning to `Fc1ccc(N2CCc3oc(-c4ccccn4)nc3C2)cc1Cl` [Compound 146, 5-(3-chloro-4-fluorophenyl)-2-(pyridin-2-yl)-4,5,6,7-tetrahydrooxazolo[4,5-c]pyridine], the IC50 under setting [1] was less than 1000 nM.
Same read-out and setting: the value for `N#Cc1cccc(N2CCc3nc(-c4ccccc4)oc3C2)c1` [Compound 148, 3-(2-Phenyl-6,7-dihydrooxazolo[5,4-c]pyridin-5(4H)-yl)benzonitrile] was less than 10000 nM; that for `c1ccc(N2CCc3oc(-c4ccccn4)nc3C2)cc1` [Compound 126, 5-phenyl-2-(pyridin-2-yl)-4,5,6,7-tetrahydrooxazolo[4,5-c]pyridine] was less than 1000 nM.
For `Fc1ccc(N2CCc3oc(-c4ccccn4)nc3C2)cc1F` [Compound 152, 5-(3,4-Difluorophenyl)-2-(pyridin-2-yl)-4,5,6,7-tetrahydrooxazolo[4,5-c]pyridine], the IC50 under setting [1] is less than 1000 nM.
With `N#Cc1cc(N2CCc3nc(-c4ccccn4)oc3C2)ccn1` [Compound 9, 4-(2-(Pyridin-2-yl)-6,7-dihydrooxazolo[5,4-c]pyridin-5(4H)-yl)picolinonitrile], the IC50 under setting [2] was less than 10000 nM.
As for `Clc1ccccc1[C@H]1CCc2oc(-c3ccccn3)nc2C1` (single isomer, unassigned) [Compound 221], the IC50 under setting [1] was less than 1000 nM.
For `Oc1ccccc1N1CCc2oc(-c3ccccn3)nc2C1` [Compound 178, 2-(2-(Pyridin-2-yl)-6,7-dihydrooxazolo[4,5-c]pyridin-5(4H)-yl)phenol], the IC50 under setting [1] was less than 1000 nM.
As for `N#Cc1cc(F)cc(N2CCc3oc(-c4ccc(F)cn4)nc3C2)c1` [Compound 33, 3-Fluoro-5-(2-(5-fluoropyridin-2-yl)-6,7-dihydrooxazolo[4,5-c]pyridin-5(4H)-yl)benzonitrile], the IC50 under setting [2] was less than 1000 nM.
Same read-out and setting: the value for `c1ccc(-c2nc3c(o2)CN(c2cnccn2)CC3)cc1` [Compound 18, 2-Phenyl-5-(pyrazin-2-yl)-4,5,6,7-tetrahydrooxazolo-[5,4-c]pyridine] was less than 10000 nM.
On the same count and under the same terms, the value for `N#Cc1cccc(N2CCc3oc(-c4ccccn4)nc3C2)n1` [Compound 29, 6-(2-(Pyridin-2-yl)-6,7-dihydrooxazolo[4,5-c]pyridin-5(4H)-yl)picolinonitrile] was less than 1000 nM.
Consider `Cc1nc(N2CCc3oc(-c4ccccn4)nc3C2)cs1` [Compound 163, 5-(2-Methylthiazol-4-yl)-2-(pyridin-2-yl)-4,5,6,7-tetrahydrooxazolo[4,5-c]pyridine], for which the IC50 under setting [1] was less than 1000 nM.
Same read-out and setting: the value for `N#Cc1cc(F)cc(-c2nc3c(o2)CCN(c2ccccn2)C3)c1` [Compound 164, 3-Fluoro-5-(5-(pyridin-2-yl)-4,5,6,7-tetrahydrooxazolo[4,5-c]pyridin-2-yl)benzonitrile] was less than 10000 nM.
Consider `Clc1cccc(N2CCCc3oc(-c4ccccn4)nc3C2)c1` [Compound 102, 5-(3-Chlorophenyl)-2-(pyridin-2-yl)-5,6,7,8-tetrahydro-4H-oxazolo[4,5-c]azepine], for which the IC50 under setting [2] is less than 1000 nM.
Regarding `N#Cc1cccc(-c2nc3c(o2)CN(c2ncccc2C#N)C3)c1` [Compound 87, 2-(2-(3-Cyanophenyl)-4H-pyrrolo[3,4-d]oxazol-5(6H)-yl)nicotinonitrile], under setting [2], the IC50 was less than 1000 nM.
Regarding `Clc1cncc(N2CCCc3oc(-c4ccccn4)nc3C2)c1` [Compound 198, 5-(5-Chloropyridin-3-yl)-2-(pyridin-2-yl)-5,6,7,8-tetrahydro-4H-oxazolo[4,5-c]azepine], the half-inhibitory concentration (IC50) under setting [1] was less than 1000 nM.

For orientation: IC50 means the concentration that inhibits the measured activity by half.
